pEC50: −log10 of the molar value.
Experiments:
AMPK 111 = target: T1, AMPK 111 (Homo sapiens, UniProt Q13131+Q9Y478); assay: Biochemical profiling of AMPK activators by AMPK111 (HTRF/TR-FRET assay, SAMS peptide, PP2A dephosphorylation protection); conditions: for pEC50: phosphorylated AMPK 111 (α1β1δ1 as printed), 11 point dilution, duplicate, 4-parameter fit; for Emax: phosphorylated AMPK 111, maximal activation
T1 construct: open reading frames encoding the full-length α1, β1 and δ1 subunits of human AMPK; made in house; host or cells: E. coli BL21-CodonPlus (DE3)-RIPL, pET-14b
Procedure: (§1) The biochemical EC50 (half-maximal concentration required for full activation) of compounds for the activation of AMPK was evaluated by HTRF assay using LANCE Ultra ULight-Acetyl-CoA Carboxylase (SAMS) peptide (commercially available, Perkin Elmer catalog TRF0133-M).
Following a fifteen-minute room temperature incubation, 5 μL of 30 nM protein phosphatase PP2A (isolation detailed above) diluted in the assay buffer was added to the plate, to dephosphorylate pThr172 of AMPK. […] The reaction was terminated after 60 minutes incubation at room temperature, by the addition of 5 μL of stop and detection cocktail, which consisted of 1× Perkin Elmer Lance buffer (Perkin Elmer catalog number CR97-100), 40 mM EDTA (Thermo Fisher catalog number BP2482-100), and 2 nM Eu-anti-Acetyl CoA Carboxylase [pSer70] antibody (Perkin Elmer, TRF0208-M).

AMPK 221 = target: T2, AMPK 221 (Homo sapiens, UniProt O43741+P54646); assay: Biochemical profiling of AMPK activators by AMPK221 (HTRF/TR-FRET assay, SAMS peptide, PP2A dephosphorylation protection); conditions: for pEC50: phosphorylated AMPK 221 (α2β2δ1), 11 point dilution, duplicate, 4-parameter fit; for Emax: phosphorylated AMPK 221, maximal activation
T2 construct: open reading frames encoding the full-length α2, β2 and δ1 subunits of human AMPK; made in house; host or cells: E. coli BL21-CodonPlus (DE3)-RIPL, pET-14b
Procedure: as §1
The reaction was terminated after 60 minutes incubation at room temperature by the addition of 5 μL of stop and detection cocktail, which consisted of 1× Perkin Elmer Lance buffer (Perkin Elmer catalog number CR97-100), 40 mM EDTA (Thermo Fisher catalog number BP2482-100), and 2 nM Eu-anti-Acetyl CoA Carboxylase [pSer70] antibody (Perkin Elmer, TRF0208-M). Plates were spun at 1000 RPM, 10 seconds.

T1 sequence (Q13131 whole entry): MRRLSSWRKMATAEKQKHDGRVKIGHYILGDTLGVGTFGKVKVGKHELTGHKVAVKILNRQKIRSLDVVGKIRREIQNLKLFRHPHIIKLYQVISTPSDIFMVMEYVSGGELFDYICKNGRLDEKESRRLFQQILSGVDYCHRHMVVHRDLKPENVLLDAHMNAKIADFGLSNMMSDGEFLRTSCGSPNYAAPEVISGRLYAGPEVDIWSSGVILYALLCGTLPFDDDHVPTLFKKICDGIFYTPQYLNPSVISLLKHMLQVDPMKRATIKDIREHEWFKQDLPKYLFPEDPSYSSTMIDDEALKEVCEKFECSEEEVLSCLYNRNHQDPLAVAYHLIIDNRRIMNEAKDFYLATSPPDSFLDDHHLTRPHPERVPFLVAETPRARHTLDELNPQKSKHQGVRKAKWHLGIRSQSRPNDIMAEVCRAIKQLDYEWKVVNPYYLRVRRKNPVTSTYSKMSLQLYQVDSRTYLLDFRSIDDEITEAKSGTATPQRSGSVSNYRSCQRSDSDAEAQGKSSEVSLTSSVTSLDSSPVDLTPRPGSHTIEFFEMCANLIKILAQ
T1 sequence (Q9Y478 whole entry): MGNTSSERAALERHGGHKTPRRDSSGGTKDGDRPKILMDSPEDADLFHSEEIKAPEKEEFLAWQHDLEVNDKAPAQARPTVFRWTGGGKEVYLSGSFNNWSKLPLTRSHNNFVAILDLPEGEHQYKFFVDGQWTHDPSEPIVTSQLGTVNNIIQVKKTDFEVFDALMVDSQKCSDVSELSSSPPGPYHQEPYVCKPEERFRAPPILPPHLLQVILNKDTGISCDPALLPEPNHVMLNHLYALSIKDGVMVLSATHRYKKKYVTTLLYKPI
T1 sequence (P54619 whole entry partner): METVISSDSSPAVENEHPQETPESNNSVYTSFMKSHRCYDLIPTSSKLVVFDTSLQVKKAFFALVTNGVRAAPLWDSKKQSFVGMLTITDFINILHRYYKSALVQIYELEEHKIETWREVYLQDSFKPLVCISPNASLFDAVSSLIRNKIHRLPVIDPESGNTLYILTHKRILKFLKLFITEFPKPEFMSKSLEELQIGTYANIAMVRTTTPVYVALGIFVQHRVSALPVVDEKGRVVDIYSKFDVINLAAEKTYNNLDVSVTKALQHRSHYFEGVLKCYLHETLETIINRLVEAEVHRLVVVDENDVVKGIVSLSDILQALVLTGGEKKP
T2 sequence (P54646 whole entry): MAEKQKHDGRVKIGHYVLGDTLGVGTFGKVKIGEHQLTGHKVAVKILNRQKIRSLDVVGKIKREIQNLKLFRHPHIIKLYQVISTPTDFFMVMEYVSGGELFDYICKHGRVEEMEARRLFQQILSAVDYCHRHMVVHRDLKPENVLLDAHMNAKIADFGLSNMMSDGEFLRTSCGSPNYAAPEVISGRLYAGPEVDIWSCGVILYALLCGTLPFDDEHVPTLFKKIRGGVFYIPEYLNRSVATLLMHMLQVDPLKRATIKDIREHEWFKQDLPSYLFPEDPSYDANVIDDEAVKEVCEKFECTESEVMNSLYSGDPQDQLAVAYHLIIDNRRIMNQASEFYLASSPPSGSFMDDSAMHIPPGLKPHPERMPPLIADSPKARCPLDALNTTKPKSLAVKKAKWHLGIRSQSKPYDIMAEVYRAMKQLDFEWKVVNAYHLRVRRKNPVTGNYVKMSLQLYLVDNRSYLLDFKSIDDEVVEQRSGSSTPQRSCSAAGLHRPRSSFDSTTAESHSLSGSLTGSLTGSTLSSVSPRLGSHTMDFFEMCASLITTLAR
T2 sequence (O43741 whole entry): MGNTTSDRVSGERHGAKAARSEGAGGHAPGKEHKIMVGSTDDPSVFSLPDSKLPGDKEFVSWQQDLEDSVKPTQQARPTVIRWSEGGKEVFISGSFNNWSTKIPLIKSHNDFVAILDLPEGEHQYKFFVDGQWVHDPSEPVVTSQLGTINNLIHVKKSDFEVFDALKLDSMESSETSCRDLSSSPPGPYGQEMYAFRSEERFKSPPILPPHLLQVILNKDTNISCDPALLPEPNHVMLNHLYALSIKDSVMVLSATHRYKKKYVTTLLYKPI
T2 sequence (P54619 whole entry partner): as the sequence (P54619 whole entry partner) above

SMILES | pEC50 (AMPK 111) | Emax (AMPK 111) | pEC50 (AMPK 221) | Emax (AMPK 221)
COc1cc(O)c(-c2ccc(-c3cc4c(CCC(=O)O)n[nH]c4cc3Cl)cc2)c(Cl)c1 [Example 49, 3-(6-chloro-5-(2′-chloro-6′-hydroxy-4′-methoxy-[1,1′-biphenyl]-4-yl)-1H-indazol-3-yl)propanoic acid] | 7.02 | 74% | 6.49 | 61%
O=C(O)CCc1n[nH]c2cc(Cl)c(-c3ccc(-c4c(O)cccc4F)cc3)cc12 [Example 50, 3-(6-chloro-5-(2′-fluoro-6′-hydroxy-[1,1′-biphenyl]-4-yl)-1H-indazol-3-yl)propanoic acid] | 6.82 | 76% | 6.47 | 55%
Cn1c(O)nc2cc(-c3ccc(-c4cc5c(CCC(=O)O)n[nH]c5cc4Cl)cc3)ccc21 [Example 53, 3-(6-chloro-5-(4-(2-hydroxy-1-methyl-1H-benzo[d]imidazol-5-yl)phenyl)-1H-indazol-3-yl)propanoic acid] | 6.66 | 69% | 6.19 | 55%
N#Cc1cccc(-c2ccc(-c3cc4c(CCC(=O)O)n[nH]c4cc3Cl)cc2)c1O [Example 55, 3-(6-chloro-5-(3′-cyano-2′-hydroxy-[1,1′-biphenyl]-4-yl)-1H-indazol-3-yl)propanoic acid] | 6.68 | 45% | 6.41 | 38%
O=C(O)CCc1n[nH]c2cc(Cl)c(-c3ccc(-c4cccc(OC(F)F)c4O)cc3)cc12 [Example 57, 3-(6-chloro-5-(3′-(difluoromethoxy)-2′-hydroxy-[1,1′-biphenyl]-4-yl)-1H-indazol-3-yl)propanoic acid] | 6.99 | 75% | 6.37 | 63%
COc1nc(-c2ccc(-c3cc4c(CCC(=O)O)n[nH]c4cc3Cl)cc2)cs1 [Example 59, 3-(6-chloro-5-(4-(2-methoxythiazol-4-yl)phenyl)-1H-indazol-3-yl)propanoic acid] | 6.22 | 30% | 6.26 | 13%
O=C(O)CCc1n[nH]c2cc(Cl)c(-c3ccc(-c4cccc(CO)c4)cc3)cc12 [Example 61, 3-(6-chloro-5-(3′-(hydroxymethyl)-[1,1′-biphenyl]-4-yl)-1H-indazol-3-yl)propanoic acid] | 6.16 | 55% | 6.19 | 34%
COc1ccc(C)c(-c2ccc(-c3cc4c(CCC(=O)O)n[nH]c4cc3Cl)cc2)c1O [Example 62, 3-(6-chloro-5-(2′-hydroxy-3′-methoxy-6′-methyl-[1,1′-biphenyl]-4-yl)-1H-indazol-3-yl)propanoic acid] | 7.60 | 72% | 7.85 | 57%
CSc1ccc(-c2ccc(-c3cc4c(CCC(=O)O)n[nH]c4cc3Cl)cc2)c(O)c1 [Example 63, 3-(6-chloro-5-(2′-hydroxy-4′-(methylthio)-[1,1′-biphenyl]-4-yl)-1H-indazol-3-yl)propanoic acid] | 6.55 | 56% | 6.25 | 64%
O=C(O)CCc1n[nH]c2cc(Cl)c(-c3ccc(-c4cnsc4)cc3)cc12 [Example 65, 3-(6-chloro-5-(4-(isothiazol-4-yl)phenyl)-1H-indazol-3-yl)propanoic acid] | 6.58 | 79% | 6.10 | 58%
O=C(O)CCc1n[nH]c2cc(Cl)c(-c3ccc(-c4csc(CO)n4)cc3)cc12 [Example 66, 3-(6-chloro-5-(4-(2-(hydroxymethyl)thiazol-4-yl)phenyl)-1H-indazol-3-yl)propanoic acid] | 6.44 | 74% | 5.96 | 63%
O=C(O)CCc1n[nH]c2cc(Cl)c(-c3ccc(-c4c(Cl)ccc(F)c4O)cc3)cc12 [Example 67, 3-(6-chloro-5-(6′-chloro-3′-fluoro-2′-hydroxy-[1,1′-biphenyl]-4-yl)-1H-indazol-3-yl)propanoic acid] | 7.16 | 85% | 6.02 | 63%
O=C(O)CCc1n[nH]c2cc(Cl)c(-c3ccc(-c4ccc5c(c4O)OCC5)cc3)cc12 [Example 68, 3-(6-chloro-5-(4-(7-hydroxy-2,3-dihydrobenzofuran-6-yl)phenyl)-1H-indazol-3-yl)propanoic acid] | 7.54 | 71% | 7.72 | 69%
O=C(O)CCc1n[nH]c2cc(Cl)c(-c3ccc(-c4cc(F)ccc4O)cc3)cc12 [Example 70, 3-(6-chloro-5-(5′-fluoro-2′-hydroxy-[1,1′-biphenyl]-4-yl)-1H-indazol-3-yl)propanoic acid] | 6.55 | 74% | 5.96 | 49%
O=C(O)CCc1n[nH]c2cc(Cl)c(-c3ccc(-c4ccc(F)c(F)c4O)cc3)cc12 [Example 71, 3-(6-chloro-5-(3′,4′-difluoro-2′-hydroxy-[1,1′-biphenyl]-4-yl)-1H-indazol-3-yl)propanoic acid] | 6.55 | 73% | 6.00 | 60%
O=C(O)CCc1n[nH]c2cc(Cl)c(-c3ccc(-c4ccccc4O)cc3)nc12 [Example 73, 3-(6-chloro-5-(2′-hydroxy-[1,1′-biphenyl]-4-yl)-1H-pyrazolo[4,3-b]pyridin-3-yl)propanoic acid] | 7.59 | 86% | 5.67 | 30%

More lines, in order of rising pEC50 (AMPK 111), values ahead:

pEC50 (AMPK 111) | Emax (AMPK 111) | pEC50 (AMPK 221) | Emax (AMPK 221) | SMILES
6.32 | 73% | 5.94 | 58% | O=C(O)CCc1n[nH]c2cc(Cl)c(-c3ccc(-c4ccc(OC(F)F)cc4O)cc3)cc12 [Example 69, 3-(6-chloro-5-(4′-(difluoromethoxy)-2′-hydroxy-[1,1′-biphenyl]-4-yl)-1H-indazol-3-yl)propanoic acid]
6.44 | 48% | 6.32 | 18% | Cc1ccc(-c2ccc(-c3cc4c(CCC(=O)O)n[nH]c4cc3Cl)cc2)s1 [Example 56, 3-(6-chloro-5-(4-(5-methylthiophen-2-yl)phenyl)-1H-indazol-3-yl)propanoic acid]
6.51 | 71% | 6.45 | 22% | O=C(O)CCc1n[nH]c2cc(Cl)c(-c3ccc(-c4ccccc4)cc3)cc12 [Example 51, 3-(5-([1,1′-biphenyl]-4-yl)-6-chloro-1H-indazol-3-yl)propanoic acid]
6.62 | 53% | 6.27 | 21% | Cc1cscc1-c1ccc(-c2cc3c(CCC(=O)O)n[nH]c3cc2Cl)cc1 [Example 60, 3-(6-chloro-5-(4-(4-methylthiophen-3-yl)phenyl)-1H-indazol-3-yl)propanoic acid]
6.66 | 61% | 6.00 | 64% | O=C(O)CCc1n[nH]c2cc(Cl)c(-c3ccc(-c4ccc5c(c4)CS(=O)(=O)C5)cc3)cc12 [Example 54, 3-(6-chloro-5-(4-(2,2-dioxido-1,3-dihydrobenzo[c]thiophen-5-yl)phenyl)-1H-indazol-3-yl)propanoic acid]
6.67 | 76% | 6.24 | 57% | O=C(O)CCc1n[nH]c2cc(Cl)c(-c3ccc(-c4csc(CO)c4)cc3)cc12 [Example 58, 3-(6-chloro-5-(4-(5-(hydroxymethyl)thiophen-3-yl)phenyl)-1H-indazol-3-yl)propanoic acid]
6.69 | 76% | 6.21 | 48% | O=C(O)CCc1n[nH]c2cc(Cl)c(-c3ccc(-c4ccc(Cl)cc4O)cc3)cc12 [Example 64, 3-(6-chloro-5-(4′-chloro-2′-hydroxy-[1,1′-biphenyl]-4-yl)-1H-indazol-3-yl)propanoic acid]
7.00 | 103% | 5.74 | 114% | NC(=O)COc1ccc(-c2ccc(-c3cc4c(CCC(=O)O)n[nH]c4cc3Cl)cc2)cc1 [Example 72, 3-(5-(4′-(2-amino-2-oxoethoxy)-[1,1′-biphenyl]-4-yl)-6-chloro-1H-indazol-3-yl)propanoic acid]
7.04 | 80% | 7.18 | 69% | COc1cccc(-c2ccc(-c3cc4c(CCCC(=O)O)n[nH]c4cc3Cl)cc2)c1O [Example 74, 4-(6-chloro-5-(2′-hydroxy-3′-methoxy-[1,1′-biphenyl]-4-yl)-1H-indazol-3-yl)butanoic acid]
8.22 | 85% | 7.72 | 65% | COc1ccc(-c2ccc(-c3cc4c(CCC(=O)O)n[nH]c4cc3Cl)cc2)c(O)c1OC [Example 52, 3-(6-chloro-5-(2′-hydroxy-3′,4′-dimethoxy-[1,1′-biphenyl]-4-yl)-1H-indazol-3-yl)propanoic acid]

Source: patent US20240336572A1, “SUBSTITUTED INDAZOLE PROPIONIC ACID DERIVATIVE COMPOUNDS AND USES THEREOF” (Pfizer Inc., priority 2023, published 2024)
